Laboratory results reported in US6506876B1, “LTA4 hydrolase inhibitor pharmaceutical compositions and methods of use” (G.D. Searle & Co., priority 1994, dated 2003).
Where a name gives a salt, the structure may show the parent alone. Read-outs that look alike come from different tables or passages of the source.

Legend:
[1] = test system: LTB4 production in human whole blood (LTA4 hydrolase); assay: LTB4 production by calcium ionophore stimulated human blood; assay type: cell-based; conditions: read-out: Inhibition of Calcium Ionophore-Induced LTB4 Production in Human Blood IC50 HWB
Experimental: LTB4 and Thromboxane Production by Calcium Ionophore Stimulated Human Blood for LTA4 Hydrolase Inhibitor Activity
One or more concentrations of the leukotriene A4 hydrolase inhibitor compounds being tested were prepared (diluted in DMSO) and 2 μl added and gently mixed with the diluted whole blood. After incubating for 15 minutes at 37° C. in a humidified incubator, calcium ionophore A23187 (Sigma Chemical Co., St. Louis, Mo.) was added to a final concentration of 20 mcg/ml and the incubation continued under the same conditions for an additional 10 minutes to allow LTB4 formation. The reaction was terminated by centrifugation (833 g, 10 minutes at 4° C.) and supernatant were analyzed for LTB4 and thromboxane by commercially available enzyme-linked immunoassays (Caymen Chemical Co., Ann Arbor, Mich.) according to the manufacturer's instructions. The IC50 of each test compound was determined from the amount of inhibition of LTB4 production as compared to an essentially identical assay in which no inhibitor compound was present.

[2] = molecular target: T1, recombinant human LTA4 hydrolase (rhLTA4H) (Homo sapiens, UniProt P09960); assay: Recombinant human LTA4 hydrolase assay for LTA4 hydrolase inhibitor activity
T1 sequence (P09960 1-611): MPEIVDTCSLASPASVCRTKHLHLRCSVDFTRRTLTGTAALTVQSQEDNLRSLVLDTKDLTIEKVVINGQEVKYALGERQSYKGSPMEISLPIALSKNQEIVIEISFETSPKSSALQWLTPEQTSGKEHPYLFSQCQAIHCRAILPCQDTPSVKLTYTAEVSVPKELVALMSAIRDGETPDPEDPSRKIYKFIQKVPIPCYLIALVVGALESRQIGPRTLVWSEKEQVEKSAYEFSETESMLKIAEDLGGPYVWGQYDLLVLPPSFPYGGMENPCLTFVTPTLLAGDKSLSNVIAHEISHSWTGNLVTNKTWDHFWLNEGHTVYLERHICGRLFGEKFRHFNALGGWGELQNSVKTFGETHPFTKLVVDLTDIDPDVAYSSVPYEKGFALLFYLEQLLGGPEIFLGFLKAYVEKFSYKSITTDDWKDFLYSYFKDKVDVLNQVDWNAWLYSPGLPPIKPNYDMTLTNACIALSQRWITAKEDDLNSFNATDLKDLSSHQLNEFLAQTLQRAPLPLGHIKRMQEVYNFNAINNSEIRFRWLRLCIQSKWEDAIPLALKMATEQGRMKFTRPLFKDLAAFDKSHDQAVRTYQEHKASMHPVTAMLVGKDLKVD

[3] = test system: LTB4 production in mouse blood (LTA4 hydrolase); assay: Ex vivo LTB4 production by calcium ionophore stimulated mouse blood after oral dosing; assay type: in vivo
Experimental: Ex Vivo LTB4 and Thromboxane Production by Calcium Ionophore Stimulated Mouse Blood for LTA4 Hydrolase Inhibitor Activity
Leukotriene A4 hydrolase inhibitor compounds of the present invention were diluted to a predetermined concentration in phosphate buffered saline containing 2% DMSO and 1% Tween 80. The compounds were administered by oral gavage to adult male outbred mice weighing approximately 20-30 gm at a dose of 10 mg/kg body weight. (Compounds given at a dose of 50 mg/kg body weight are designtated in following Table by the symbol, *.) Sixty (60) minutes after administration of an LTA4 inhibitor compound of the invention, blood was collected (into heparin-containing tubes) from the retroorbital sinus. […] The mixture was incubated for 10 minutes at 37° C. in a humidified incubator. The reaction was terminated by centrifugation (833 g, 10 minutes at 4° C.). Supernatants were analyzed for LTB4 and thromboxane by commercially available enzyme-linked immunoassays (Caymen Chemical Co., Ann Arbor, Mich.] in accordance with the manufacturer's instructions. The percent inhibition was determined by comparison to animals treated identically except that the solution admininstered by oral gavage was devoid of inhibitor compound.

[4] = Recombinant Human LTA4 Hydrolase Assay IC50 LTA4H, recombinant hLTA4H
[5] = Mus musculus, po, 1 h; read-out: Murine Ex Vivo LTB4 Inhibition % I LTB4
[6] = Homo sapiens, human whole blood, A23187
[7] = mouse, oral gavage, 1 hour after administration of 10 mg/kg; read-out: Murine Ex Vivo LTB4 Inhibition % I LTB4

IC50 [2, 4] | IC50 [1, 6] | Structure (SMILES) | inhibition in vivo at 10 mg/kg [3, 7] | other results
 |  | c1ccc(Cc2ccc(OCCN3CCCC3)cc2)cc1 [Example 45, 1-[2-(4-phenylmethyl)phenoxyethyl]pyrrolidine] |  | IC50 ([1]; human whole blood, A23187): 116 nM; inhibition in vivo at 10 mg/kg [3, 5]: 35%
 | 1500 nM | C(=C\c1ccc(OCCN2CCCC2)cc1)/c1ccccc1 [Example 46, 1-[2-[4-(2-phenylethenyl)phenoxy]ethyl]pyrrolidine] | 13% | 
 | 3500 nM | c1ccc(Cc2cnc(OCCN3CCCC3)s2)cc1 [Example 76] |  | 
 | 2010 nM | Clc1cc(Cc2ccccc2)ccc1OCCN1CCCC1 [Example 113] |  | 
 | 190 nM | Fc1cc(Cc2ccccc2)ccc1OCCN1CCCC1 [Example 115] |  | 
 | 1090 nM | Fc1cc(OCCN2CCCC2)ccc1Cc1ccccc1 [Example 116] | 18% | 
 | 2480 nM | COc1cccc(Cc2ccc(OCCN3CCCC3)cc2)c1 [Example 127] |  | 
 | 890 nM | COc1ccc(Cc2ccc(OCCN3CCCC3)cc2)cc1 [Example 128] | 74% | 
 | 1010 nM | Clc1ccc(Cc2ccc(OCCN3CCCC3)cc2)cc1 [Example 140] | 15% | 
 |  | COC(=O)[C@@H]1CCCN1CCOc1ccc(Cc2ccccc2)cc1 [Example 225, Methyl 1-[2-[4-(Phenylmethyl)phenoxy]ethyl]-2S-pyrrolidine-2-carboxylate, monohydrochloride, hydrate] |  | IC50 ([1]; Homo sapiens): 1860 nM
 |  | CC(=O)NC1CCN(CCOc2ccc(Cc3ccccc3)cc2)C1 (stereo not shown) [Example 227] |  | IC50 ([1]; human whole blood, A23187): 420 nM; Murine Ex Vivo LTB4 Inhibition % I LTB4 ([3]; mouse, oral gavage, 1 hour after administration of 10 mg/kg): 23%
 | 180 nM | CC(=O)NC1CCN(CCOc2ccc(Cc3ccccc3)cc2)CC1 [Example 238] | 49% | 
 | 420 nM | CC(=O)NC1CCN(CCOc2ccc(Cc3ccccc3)cc2)C1 (stereo not shown) [Example 256] | 23% | 
 | 1100 nM | CCOC(=O)CNCCCOc1ccc(Cc2ccccc2)cc1 [Example 264] |  | inhibition in vivo at 50 mg/kg ([3]; mouse, oral gavage, 1 hour after administration of 50 mg/kg (*); read-out: Murine Ex Vivo LTB4 Inhibition % I LTB4): 87%
 | 76 nM | CCOC(=O)CCNCCCCOc1ccc(Cc2ccccc2)cc1 [Example 272] | 97% | 
 | 354 nM | CCOC(=O)CNCCCCOc1ccc(Cc2ccccc2)cc1 [Example 320] | 85% | 
 | 421 nM | CCOC(=O)CNCCCCCOc1ccc(Cc2ccccc2)cc1 [Example 321] | 87% | 
 | 586 nM | COC(=O)CCNCCOc1ccc(Cc2ccccc2)cc1 [Example 324] | 62% | 
 | 95 nM | COC(=O)CCN(C)CCCOc1ccc(Cc2cccs2)cc1 [Example 331] | 97% | 
140 nM |  | OCC1CCCN1CCOc1ccc(Cc2ccccc2)cc1 (stereo not shown) [Example 385] | 32% | 
 |  | c1ccc(Cc2ccc(OCCN3CCCCCC3)cc2)cc1 [Example 397] |  | IC50 ([1]; Homo sapiens): 120 nM; IC50 ([2]; read-out: Recombinant Human LTA4 Hydrolase Assay IC50 LTA4H): 37 nM

IC50 [2, 4] | IC50 [1, 6] | Structure (SMILES) | inhibition in vivo at 10 mg/kg [3, 7] | other results
100 nM |  | CC1CCC(C)N1CCOc1ccc(Cc2ccccc2)cc1 (stereo not shown) [Example 399] | 30% | 
1750 nM |  | CC(CN1CCCCCC1)Oc1ccc(Cc2ccccc2)cc1 (stereo not shown) [Example 404] | 52% | 
420 nM |  | CCC(CN1CCCC1)Oc1ccc(Cc2ccccc2)cc1 (stereo not shown) [Example 405] | 49% | 
500 nM |  | c1ccc(Cc2ccc(OC(Cc3ccccc3)CN3CCCC3)cc2)cc1 (stereo not shown) [Example 406] | 46% | 
20000 nM |  | C#CC(CC(=O)OCC)NCCCOc1ccc(Cc2ccccc2)cc1 (stereo not shown) [Example 407] | 0% | 
43 nM |  | COC(=O)CCN(C)CCCOc1ccc(Cc2ccccc2)cc1 [Example 413] | 86% | 
410 nM |  | CC(C)(O)CCNCCCOc1ccc(Cc2ccccc2)cc1 [Example 416] | 31% | 
47 nM |  | NNC(=O)C1CCN(CCOc2ccc(Cc3ccccc3)cc2)CC1 [Example 419] | 90% | 
100 nM |  | CNC(=O)CCNCCCOc1ccc(Cc2ccccc2)cc1 [Example 422] | 37% | 
370 nM | 580 nM | O=C(CCNCCCOc1ccc(Cc2ccccc2)cc1)N1CCOCC1 [Example 424] |  | 
 | 360 nM | NC(=O)C1CCN(CCOc2ccc(Cc3ccccc3)cc2)C1 (stereo not shown) [Example 425] | 60% | 
350 nM |  | NC(=O)C1(O)CCN(CCOc2ccc(Cc3ccccc3)cc2)CC1 [Example 427] | 68% | 
500 nM |  | O=C(Nc1ccccc1)OC[C@@H]1CCCN1CCOc1ccc(Cc2ccccc2)cc1 [Example 428] | 2% | 
140 nM |  | CC(CN(C)CCCOc1ccc(Cc2ccccc2)cc1)C(=O)O (stereo not shown) [Example 432] | 85% | 
35 nM |  | N/C(=N\O)C1CCN(CC2Cc3cc(Cc4ccccc4)ccc3O2)CC1 (stereo not shown) [Example 446] | 70% | 
820 nM | 825 nM | O=c1[nH]c(C2CCCN(CCOc3ccc(Cc4ccccc4)cc3)C2)no1 (stereo not shown) [Example 448] |  | 
6 nM |  | CC1CC(c2nnn[nH]2)CCN1CCOc1ccc(Cc2ccccc2)cc1 (stereo not shown) [Example 451] | 90% | 
 | 290 nM | NC1CCN(CCOc2ccc(Cc3ccccc3)cc2)C1 (stereo not shown) [Example 452] | 57% | 
11 nM |  | NC1CCN(CCOc2ccc(Cc3ccccc3)cc2)CC1 [Example 455] | 67% | 
240 nM |  | c1ccc(Cc2ccc(OCCN3CC4CCC3C4)cc2)cc1 (stereo not shown) [Example 499] | 60% | 
140 nM |  | c1ccc(Cc2ccc(OCCN3CC4CCC3CC4)cc2)cc1 [Example 500] | 53% | 

Structure (SMILES) | IC50 [2, 4] | IC50 [1, 6] | inhibition in vivo at 10 mg/kg [3, 7] | other results
c1ccc(Cc2ccc3c(c2)CC(Cn2cnc4ccncc42)O3)cc1 (stereo not shown) [358 A] | 1550 nM |  |  | IC50 ([1]; human whole blood, A23187): 152 nM
COC(=O)C1CCCN1CCOc1ccc(Cc2ccccc2)cc1 (stereo not shown) [Example 237] | 450 nM |  |  | IC50 ([1]; Homo sapiens): 1860 nM
CCOC(=O)CC1CCN(CCOc2ccc(Oc3ccccc3)cc2)CC1 [Example 300] | 5000 nM |  |  | IC50 ([1]; human whole blood, A23187): 2510 nM
CCOC(=O)C1C2CN(CCOc3ccc(Cc4ccccc4)cc3)CC21 (stereo not shown) [Example 325] | 20000 nM |  |  | IC50 ([1]; human whole blood, A23187): 2400 nM
OC1CCN(CCOc2ccc(Cc3ccccc3)cc2)C1 (stereo not shown) [Example 386] | 32 nM |  |  | inhibition in vivo at 10 mg/kg ([3]; Mus musculus, po, 1 h, read-out: Murine Ex Vivo LTB4 Inhibition % I LTB4): 51%
O=C(O)C1CCN(CCOc2ccc(Cc3ccccc3)cc2)CC1 [Example 429] | 250 nM |  |  | inhibition in vivo at 10 mg/kg [3, 5]: 80%
O=C(O)C1C2CN(CCOc3ccc(Cc4ccccc4)cc3)CC21 (stereo not shown) [Example 435] | 225 nM |  |  | IC50 ([1]; human whole blood, A23187): 86 nM
O=C(O)C1CCN(CCOc2ccc(Cc3cccs3)cc2)CC1 [Example 437] | 113 nM |  |  | IC50 ([1]; human whole blood, A23187): 693 nM
O=C(CCl)NC1CCN(CCOc2ccc(Cc3ccccc3)cc2)C1 (stereo not shown) [Example 454] | 140 nM |  |  | IC50 ([1]; human whole blood, A23187): 610 nM
